Measurements from patent US9833497B2, “Human originated EGF domain proteins and use of the same” (CHENGDU SOURCEBIO LIMITED-LIABILITY COMPANY, priority 2013, dated 2017).

How the values were obtained:
Type in all cases: cell-based
Proteus mirabilis = experiment: MIC against Gram-negative bacteria: Proteus mirabilis; details: 5×10^5 CFU/mL
Summary of the method: (§1)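 Growth inhibition by human EGF domain proteins was scored in LB liquid culture seeded at 5×10^5 CFU/mL. Protein was applied as a two-fold dilution series in triplicate, with shaking incubation at 37° C; MIC is the lowest concentration giving no growth.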

Aeromonas hydrophila = experiment: MIC against Gram-negative bacteria: Aeromonas hydrophila; details: 5×10^5 CFU/mL
Summary of the method: as §1

Moraxella catarrhalis = experiment: MIC against Gram-negative bacteria: Moraxella catarrhalis; details: 5×10^5 CFU/mL
Summary of the method: as §1

Pseudomonas aeruginosa = experiment: MIC against Gram-negative bacteria: Pseudomonas aeruginosa; details: 5×10^5 CFU/mL
Summary of the method: as §1

Enterobacter cloacae = experiment: MIC against Gram-negative bacteria: Enterobacter cloacae; details: 5×10^5 CFU/mL
Summary of the method: as §1

Proteus vulgaris = experiment: MIC against Gram-negative bacteria: Proteus vulgaris; details: 5×10^5 CFU/mL
Summary of the method: as §1

Citrobacter diversus = experiment: MIC against Gram-negative bacteria: Citrobacter diversus; details: 5×10^5 CFU/mL
Summary of the method: as §1

Serratia marcescens = experiment: MIC against Gram-negative bacteria: Serratia marcescens; details: 5×10^5 CFU/mL
Summary of the method: as §1

Klebsiella pneumonia = experiment: MIC against Gram-negative bacteria: Klebsiella pneumonia; details: 5×10^5 CFU/mL
Summary of the method: as §1

E. coli BL21 = experiment: MIC against Gram-negative bacteria: E. coli BL21; details: 5×10^5 CFU/mL
Summary of the method: as §1

E. coli DH5α = experiment: Antibacterial activity: MIC and growth curve against E. coli DH5α in 96-well plate; details: minimal inhibitory concentration against E. coli DH5α; 96-well plate, 5×10^5 CFU/mL, 37° C., judged after 8 h
Summary of the method: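 Log-phase bacteria (OD600 ~0.5) resuspended in LB at 5×10^5 CFU/mL, exposed to recombinant protein at 50, 25, 12.5 μg/mL final in triplicate, 37 °C shaking at 175 rpm. OD600 read every 30 min; MIC is lowest concentration showing no growth.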

[1] = Proteus mirabilis, 10 h cultivation at 37° C.
[2] = Aeromonas hydrophila, 10 h cultivation at 37° C.
[3] = Moraxella catarrhalis, 10 h cultivation at 37° C.
[4] = Pseudomonas aeruginosa, 10 h cultivation at 37° C.
[5] = Enterobacter cloacae, 10 h cultivation at 37° C.
[6] = Proteus vulgaris, 10 h cultivation at 37° C.
[7] = Citrobacter diversus, 10 h cultivation at 37° C.
[8] = Serratia marcescens, 10 h cultivation at 37° C.
[9] = Klebsiella pneumonia, 10 h cultivation at 37° C.
[10] = E. coli BL21, 10 h cultivation at 37° C.

PRT508 (CECSHLGNNCDPKTGRCICPPNTIGEKCSKCAPNTWGHSITTGCKA; listed as Homo sapiens)
MIC against P. mirabilis (Proteus mirabilis; 96-well plate, 37° C., 10 h): 12.5 µg/mL
MIC against A. hydrophila (Aeromonas hydrophila; 96-well plate, 37° C., 10 h): 50 µg/mL
MIC against M. catarrhalis (Moraxella catarrhalis; 96-well plate, 37° C., 10 h): 50 µg/mL
MIC against P. aeruginosa (Pseudomonas aeruginosa; 96-well plate, 37° C., 10 h): 50 µg/mL
MIC against E. cloacae (Enterobacter cloacae; 96-well plate, 37° C., 10 h): 12.5 µg/mL
MIC against P. vulgaris (Proteus vulgaris; 96-well plate, 37° C., 10 h): 12.5 µg/mL
MIC against C. diversus (Citrobacter diversus; 96-well plate, 37° C., 10 h): 100 µg/mL
MIC against S. marcescens (Serratia marcescens; 96-well plate, 37° C., 10 h): 25 µg/mL
MIC against K. pneumonia (Klebsiella pneumonia; 96-well plate, 37° C., 10 h): 25 µg/mL
MIC against E. coli BL21 (E. coli BL21; 96-well plate, 37° C., 10 h): 25 µg/mL
MIC (E. coli DH5α): 12.5 µg/mL

PRT1367 (YPACPENCSGHGECVRGVCQCHEDFMSEDCS; listed as Homo sapiens)
MIC against P. mirabilis (Proteus mirabilis; [1]): 12.5 µg/mL
MIC against A. hydrophila (Aeromonas hydrophila; [2]): 50 µg/mL
MIC against M. catarrhalis (Moraxella catarrhalis; [3]): 50 µg/mL
MIC against P. aeruginosa (Pseudomonas aeruginosa; [4]): 25 µg/mL
MIC against E. cloacae (Enterobacter cloacae; [5]): 25 µg/mL
MIC against P. vulgaris (Proteus vulgaris; [6]): 50 µg/mL
MIC against C. diversus (Citrobacter diversus; [7]): 12.5 µg/mL
MIC against S. marcescens (Serratia marcescens; [8]): 25 µg/mL
MIC against K. pneumonia (Klebsiella pneumonia; [9]): 12.5 µg/mL
MIC against E. coli BL21 (E. coli BL21; [10]): 50 µg/mL
MIC (E. coli DH5α): 25 µg/mL

PRT1324 (PITSCLEQTGKCHPLASCQSTSSGVWSCVCQEGYEGDGFL; listed as Homo sapiens)
MIC against P. mirabilis (Proteus mirabilis; Proteus mirabilis, 96-well plate, 37° C., 10 h): 25 µg/mL
MIC against A. hydrophila (Aeromonas hydrophila; Aeromonas hydrophila, 96-well plate, 37° C., 10 h): 50 µg/mL
MIC against M. catarrhalis (Moraxella catarrhalis; Moraxella catarrhalis, 96-well plate, 37° C., 10 h): 12.5 µg/mL
MIC against P. aeruginosa (Pseudomonas aeruginosa; Pseudomonas aeruginosa, 96-well plate, 37° C., 10 h): 50 µg/mL
MIC against E. cloacae (Enterobacter cloacae; Enterobacter cloacae, 96-well plate, 37° C., 10 h): 12.5 µg/mL
MIC against P. vulgaris (Proteus vulgaris; Proteus vulgaris, 96-well plate, 37° C., 10 h): 12.5 µg/mL
MIC against C. diversus (Citrobacter diversus; Citrobacter diversus, 96-well plate, 37° C., 10 h): 25 µg/mL
MIC against S. marcescens (Serratia marcescens; Serratia marcescens, 96-well plate, 37° C., 10 h): 25 µg/mL
MIC against K. pneumonia (Klebsiella pneumonia; Klebsiella pneumonia, 96-well plate, 37° C., 10 h): 25 µg/mL
MIC against E. coli BL21 (E. coli BL21; E. coli BL21, 96-well plate, 37° C., 10 h): 25 µg/mL
MIC (E. coli DH5α): 12.5 µg/mL

PRT755 (AVDYCASENHGCEHECVNADGSYLCQCHEGFALNPDKKTCT; listed as Homo sapiens)
MIC (μg/mL) P. mirabilis (Proteus mirabilis; 10 h cultivation at 37° C.): 12.5 µg/mL
MIC (μg/mL) A. hydrophila (Aeromonas hydrophila; 10 h cultivation at 37° C.): 50 µg/mL
MIC (μg/mL) M. catarrhalis (Moraxella catarrhalis; 10 h cultivation at 37° C.): 50 µg/mL
MIC (μg/mL) P. aeruginosa (Pseudomonas aeruginosa; 10 h cultivation at 37° C.): 12.5 µg/mL
MIC (μg/mL) E. cloacae (Enterobacter cloacae; 10 h cultivation at 37° C.): 12.5 µg/mL
MIC (μg/mL) P. vulgaris (Proteus vulgaris; 10 h cultivation at 37° C.): 12.5 µg/mL
MIC (μg/mL) C. diversus (Citrobacter diversus; 10 h cultivation at 37° C.): 12.5 µg/mL
MIC (μg/mL) S. marcescens (Serratia marcescens; 10 h cultivation at 37° C.): 25 µg/mL
MIC (μg/mL) K. pneumonia (Klebsiella pneumonia; 10 h cultivation at 37° C.): 50 µg/mL
MIC (μg/mL) E. coli BL21 (E. coli BL21; [10]): 50 µg/mL
MIC (E. coli DH5α): 12.5 µg/mL

PRT870 (CECFGHSNRCSYIDLLNTVICVSCKHNTRGQHCELCRLGYFRNASAQLDDENVCIE; listed as Homo sapiens)
MIC (μg/mL) P. mirabilis (Proteus mirabilis; 10 h cultivation at 37° C.): 25 µg/mL
MIC (μg/mL) A. hydrophila (Aeromonas hydrophila; 10 h cultivation at 37° C.): 12.5 µg/mL
MIC (μg/mL) M. catarrhalis (Moraxella catarrhalis; 10 h cultivation at 37° C.): 50 µg/mL
MIC (μg/mL) P. aeruginosa (Pseudomonas aeruginosa; 10 h cultivation at 37° C.): 100 µg/mL
MIC (μg/mL) E. cloacae (Enterobacter cloacae; 10 h cultivation at 37° C.): 25 µg/mL
MIC (μg/mL) P. vulgaris (Proteus vulgaris; 10 h cultivation at 37° C.): 12.5 µg/mL
MIC (μg/mL) C. diversus (Citrobacter diversus; 10 h cultivation at 37° C.): 25 µg/mL
MIC (μg/mL) S. marcescens (Serratia marcescens; 10 h cultivation at 37° C.): 50 µg/mL
MIC (μg/mL) K. pneumonia (Klebsiella pneumonia; 10 h cultivation at 37° C.): 50 µg/mL
MIC (μg/mL) E. coli BL21 (E. coli BL21; [10]): 50 µg/mL
MIC (E. coli DH5α): 12.5 µg/mL

PRT1440 (DKDECSKDNGGCQHECVNTMGSYMCQCRNGFVLHDNKHDCK; listed as Homo sapiens)
MIC against P. mirabilis (Proteus mirabilis; [1]): 25 µg/mL
MIC against A. hydrophila (Aeromonas hydrophila; [2]): 25 µg/mL
MIC against M. catarrhalis (Moraxella catarrhalis; [3]): 12.5 µg/mL
MIC against P. aeruginosa (Pseudomonas aeruginosa; [4]): 12.5 µg/mL
MIC against E. cloacae (Enterobacter cloacae; [5]): 12.5 µg/mL
MIC against P. vulgaris (Proteus vulgaris; [6]): 12.5 µg/mL
MIC against C. diversus (Citrobacter diversus; [7]): 25 µg/mL
MIC against S. marcescens (Serratia marcescens; [8]): 25 µg/mL
MIC against K. pneumonia (Klebsiella pneumonia; [9]): 25 µg/mL
MIC against E. coli BL21 (E. coli BL21; [10]): 25 µg/mL
MIC (E. coli DH5α): 12.5 µg/mL

PRT498 (CDCNPHGSVHGDCDRTSGQCVCRLGASGLRCDECEPRHILMETDCVS; listed as Homo sapiens)
MIC against P. mirabilis (Proteus mirabilis; 96-well plate, 37° C., 10 h): 25 µg/mL
MIC against A. hydrophila (Aeromonas hydrophila; 96-well plate, 37° C., 10 h): 12.5 µg/mL
MIC against M. catarrhalis (Moraxella catarrhalis; 96-well plate, 37° C., 10 h): 12.5 µg/mL
MIC against P. aeruginosa (Pseudomonas aeruginosa; 96-well plate, 37° C., 10 h): 12.5 µg/mL
MIC against E. cloacae (Enterobacter cloacae; 96-well plate, 37° C., 10 h): 12.5 µg/mL
MIC against P. vulgaris (Proteus vulgaris; 96-well plate, 37° C., 10 h): 12.5 µg/mL
MIC against C. diversus (Citrobacter diversus; 96-well plate, 37° C., 10 h): 25 µg/mL
MIC against S. marcescens (Serratia marcescens; 96-well plate, 37° C., 10 h): 25 µg/mL
MIC against K. pneumonia (Klebsiella pneumonia; 96-well plate, 37° C., 10 h): 12.5 µg/mL
MIC against E. coli BL21 (E. coli BL21; 96-well plate, 37° C., 10 h): 50 µg/mL
MIC (E. coli DH5α): 12.5 µg/mL
